# Reference: patent US9434711B2 (Janssen Pharmaceutica, NV, priority 2007, dated 2016)
# Read-outs that look alike come from different tables or passages of the source.
# Molecular target: canine TRPM8 (Canis lupus familiaris, UniProt Q1A7N1)
# Test: In Vitro Canine TRPM8 Functional Assay (Ca2+ fluorescence, icilin activation)
# Type: cell-based
# Settings: for inhibition at 0.5 µM: compound at 0.5 μM, read-out: % Inh @ 0.5
# In short: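 HEK293 cells stably expressing canine TRPM8 loaded with Calcium 3 dye; compound added and Ca2+ fluorescence monitored 5 min before icilin at a final level giving ~80% maximal response, read on FLIPR or FDSS. EC50 or IC50 from eight-point dose-response, quadruplicate wells per point.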
# [1] = HEK293 cells stably expressing canine TRPM8, icilin activation, eight-point dose-response, read-out: IC50
# [2] = compound at 0.2 μM, canine TRPM8, icilin activation, read-out: % Inh @ 0.2
# [3] = compound at 0.2 μM, canine TRPM8, icilin activation
# [4] = canine TRPM8, icilin activation
# canine TRPM8, sequence (Q1A7N1 1-1104): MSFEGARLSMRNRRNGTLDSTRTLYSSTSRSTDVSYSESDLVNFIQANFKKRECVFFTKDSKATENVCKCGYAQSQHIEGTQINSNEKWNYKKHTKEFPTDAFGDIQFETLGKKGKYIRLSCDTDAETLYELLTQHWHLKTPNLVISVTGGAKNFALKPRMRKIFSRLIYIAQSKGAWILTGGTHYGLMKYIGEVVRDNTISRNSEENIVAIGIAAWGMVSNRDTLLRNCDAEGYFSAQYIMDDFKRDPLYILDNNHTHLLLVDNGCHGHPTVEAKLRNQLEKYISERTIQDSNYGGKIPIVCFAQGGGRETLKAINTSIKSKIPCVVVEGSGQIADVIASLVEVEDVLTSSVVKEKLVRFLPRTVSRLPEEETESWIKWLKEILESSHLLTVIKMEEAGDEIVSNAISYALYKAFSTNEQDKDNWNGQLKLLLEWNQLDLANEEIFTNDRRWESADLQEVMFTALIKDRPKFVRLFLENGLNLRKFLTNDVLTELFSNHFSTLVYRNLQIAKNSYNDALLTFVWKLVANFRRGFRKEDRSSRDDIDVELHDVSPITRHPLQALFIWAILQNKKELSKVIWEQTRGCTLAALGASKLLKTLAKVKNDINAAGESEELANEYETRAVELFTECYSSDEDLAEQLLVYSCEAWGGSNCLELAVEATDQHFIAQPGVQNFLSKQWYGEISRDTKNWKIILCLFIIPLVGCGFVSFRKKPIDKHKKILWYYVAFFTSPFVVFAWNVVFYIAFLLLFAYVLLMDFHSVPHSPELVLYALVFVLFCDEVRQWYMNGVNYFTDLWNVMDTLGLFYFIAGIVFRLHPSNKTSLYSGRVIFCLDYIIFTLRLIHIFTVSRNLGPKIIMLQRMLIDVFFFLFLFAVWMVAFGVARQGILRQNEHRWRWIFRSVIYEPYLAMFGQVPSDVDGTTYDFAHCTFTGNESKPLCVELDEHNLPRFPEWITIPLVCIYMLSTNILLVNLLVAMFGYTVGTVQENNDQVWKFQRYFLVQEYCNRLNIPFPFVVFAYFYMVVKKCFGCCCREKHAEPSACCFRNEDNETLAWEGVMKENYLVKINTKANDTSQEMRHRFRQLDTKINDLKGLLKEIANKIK
Compound,IC50 [1] [nM],inhibition at 0.2 µM [2] [%],other results
"O=c1[nH]c(-c2ccc(S(=O)(=O)N(CCCCC(F)(F)F)c3cc4ccccc4s3)cc2)ns1 [Compound 687, N-(Benzo[b]thiophen-2-yl)-N-(5,5,5-trifluoro-pentyl)-4-(5-oxo-4,5-dihydro-[1,2,4]thiadiazol-3-yl)-benzenesulfonamide]",56.9,74.5,–
"O=S1NC(c2ccc(S(=O)(=O)N(CCC3CC3)c3cc4ccccc4s3)cc2)=NO1 (centres unmarked) [Compound 610, N-(Benzo[b]thiophen-2-yl)-N-(cyclopropyl-ethyl)-4-(3H-[1,2,3,5]oxathiadiazole-2-oxide)-benzenesulfonamide]",–,–,% Inh @ 0.2 (μM) [3]: 55%
"O=S(=O)(c1ccccc1)N(CCc1ccccc1)c1sc2ccccc2c1Cl [Compound 85, N-(3-Chloro-benzo[b]thiophen-2-yl)-N-(phenethyl)-benzenesulfonamide]",–,–,inhibition at 0.5 µM [4]: 100%
"Cc1c(N(CCCCC(F)(F)F)S(=O)(=O)CCC(=O)O)sc2ccccc12 [Compound 606, N-(3-Methyl-benzo[b]thiophen-2-yl)-N-(5,5,5-trifluoro-pentyl)-2-carboxy-ethanesulfonamide]",90.5,75,–
"COc1cccc2cc(N(Cc3ccc(F)c(F)c3)S(=O)(=O)c3ccccc3)sc12 [Compound 142, N-(3,4-Difluoro-benzyl)-N-(7-methoxy-benzo[b]thiophen-2-yl)-benzenesulfonamide]",–,–,inhibition at 0.5 µM [4]: 60%
"CCCCN(C1=C(N(C)C)c2ccccc2S1(=O)=O)S(=O)(=O)c1ccc(C(=O)O)cc1 [Compound 536, N-(Butyl)-N-(3-dimethylamino-1,1-dioxo-1H-benzo[b]thiophen-2-yl)-4-carboxy-benzenesulfonamide]",77,89,–
COC(=O)CCS(=O)(=O)N(Cc1ccc(F)c(C(F)(F)F)c1)c1sc2ccccc2c1C [Compound 71],–,–,IC50: 18 nM; inhibition at 0.2 µM (read-out: % Inh @ 0.2 (μM)): 98%
N-(3-Cyclopentyl-benzo[b]thiophen-2-yl)-N-(4-fluoro-3-trifluoromethyl-benzyl)-4-carbomethoxy-benzenesulfonamide [Compound 501],–,–,% Inh @ 0.2 (μM) [3]: 31%
"Cc1c(N(CC2CC2)S(C)(=O)=O)sc2ccccc12 [Compound 365, N-(Cyclopropylmethyl)-N-(3-methyl-benzo[b]thiophen-2-yl)-methanesulfonamide]",–,38,–
"N-(3-Chloro-benzo[b]thiophen-2-yl)-N-(4,4,4-trifluoro-butyl)-4-(5-oxo-4,5-dihydro-[1,2,4]oxadiazol-3-yl)-benzenesulfonamide [Compound 515]",–,–,% Inh @ 0.2 (μM) [3]: 49%
"CCS(=O)(=O)N(Cc1ccc(F)c(C(F)(F)F)c1)c1sc2ccccc2c1C=O [Compound 210, N-(4-Fluoro-3-trifluoromethyl-benzyl)-N-(3-formyl-benzo[b]thiophen-2-yl)-ethanesulfonamide]",8,91,–
"CCCCN(c1sc2ccccc2c1C(C)(C)O)S(=O)(=O)c1ccc(C(C)(C)O)cc1 [Compound 341, N-(Butyl)-N-(3-(1-hydroxy-1-methyl-ethyl)-benzo[b]thiophen-2-yl)-4-(2-1-hydroxy-1-methyl-ethyl)-benzenesulfonamide]",14,–,% Inh @ 0.2 (μM) [3]: 96%
"Cc1c(N(Cc2cccc(OC(F)(F)F)c2)S(=O)(=O)CCC(C)(C)O)sc2ccccc12 [Compound 763, N-(3-Methyl-benzo[b]thiophen-2-yl)-N-(3-trifluoromethoxy-benzyl)-3-hydroxy-3-methyl-butane-1-sulfonamide]",27.7,102,–
"O=C(O)c1ccc(S(=O)(=O)N(CCC(F)(F)F)c2cc3ccccc3s2)cc1 [Compound 456, N-(Benzo[b]thiophen-2-yl)-N-(3,3,3-trifluoro-propyl)-4-carboxy-benzenesulfonamide]",–,67,–
"Cc1c(N(Cc2ccc(OC(F)(F)F)cc2)S(=O)(=O)c2cccc3cnccc23)sc2ccccc12 [Compound 28, N-(3-Methyl-benzo[b]thiophen-2-yl)-N-(4-trifluoromethoxy-benzyl)-isoquinoline-5-sulfonamide]",32,–,inhibition at 0.5 µM [4]: 100%
"CC1=C(N(CCC2CC2)S(=O)(=O)c2ccc(C(=O)O)cc2)S(=O)(=O)c2ccccc21 [Compound 632, N-(2-Cyclopropyl-ethyl)-N-(3-methyl-1,1-dioxo-benzo[b]thiophen-2-yl)-4-carboxy-benzenesulfonamide]",–,12,–

# Continued, in another order:
IC50 [1] [nM],inhibition at 0.2 µM [2] [%],Compound,other results
57.9,100,"CS(=O)(=O)Nc1ccc(S(=O)(=O)N(CCCCC(F)(F)F)c2sc3ccccc3c2Cl)cc1 [Compound 679, N-(3-Chloro-benzo[b]thiophen-2-yl)-4-methanesulfonylamino-N-(5,5,5-trifluoro-pentyl)-benzenesulfonamide]",–
7,93,"CCCCCN(c1sc2ccccc2c1Br)S(=O)(=O)c1ccc(C(=O)O)cc1 [Compound 392, N-(3-Bromo-benzo[b]thiophen-2-yl)-N-(pentyl)-4-carboxy-benzenesulfonamide]",–
15.9,100,"O=c1[nH]c(-c2ccc(S(=O)(=O)N(CCCCC(F)(F)F)c3sc4ccccc4c3Cl)cc2)no1 [Compound 584, N-(3-Chloro-benzo[b]thiophen-2-yl)-N-(5,5,5-trifluoro-pentyl)-4-(5-oxo-4,5-dihydro-[1,2,4]oxadiazol-3-yl)-benzenesulfonamide]",–
31,100,"CCCCN(c1sc2ccccc2c1C(C)(C)O)S(=O)(=O)c1ccc(Br)cc1 [Compound 506, N-(Butyl)-N-(3-(1-hydroxy-1-methyl-ethyl)-benzo[b]thiophen-2-yl)-4-bromo-benzenesulfonamide]",–
64,90,"O=S1(=O)C(N(Cc2ccc(F)c(C(F)(F)F)c2)S(=O)(=O)c2ccccc2)=Cc2ccccc21 [Compound 421, N-(4-Fluoro-3-trifluoromethyl-benzyl)-N-(1,1-dioxo-benzo[b]thiophen-2-yl)-benzenesulfonamide]",–
26.2,103,"COC(=O)c1ccc(S(=O)(=O)N(CCC(F)(F)F)c2sc3ccccc3c2C)cc1 [Compound 629, N-(3-Methyl-benzo[b]thiophen-2-yl)-N-(3,3,3-trifluoro-propyl)-4-carbomethoxy-benzenesulfonamide]",–
–,13,"CCCCN(c1sc2ccccc2c1C(=O)N(C)C)S(=O)(=O)c1ccc(C(=O)O)cc1 [Compound 469, N-(Butyl)-N-(3-dimethylcarbamoyl-benzo[b]thiophen-2-yl)-4-carboxy-benzenesulfonamide]",–
9,101,"O=C(O)c1ccc(S(=O)(=O)N(CCCC(F)(F)F)c2sc3ccccc3c2Br)cc1 [Compound 394, N-(3-Bromo-benzo[b]thiophen-2-yl)-N-(4,4,4-trifluoro-butyl)-4-carboxy-benzenesulfonamide]",–
8.9,98,"Cc1c(N(CCc2ccccc2)S(=O)(=O)c2ccccc2)sc2ccccc12 [Compound 104, N-(3-Methyl-benzo[b]thiophen-2-yl)-N-(phenethyl)-benzenesulfonamide]",–
4.6,–,"O=S(=O)(c1ccccc1)N(Cc1ccccc1)c1sc2ccccc2c1Br [Compound 175, N-(Benzyl)-N-(3-bromo-benzo[b]thiophen-2-yl)-benzenesulfonamide]",inhibition at 0.5 µM [4]: 97%
6.4,101,"Nc1ccc(S(=O)(=O)N(CCC(F)(F)F)c2sc3ccccc3c2Cl)cc1 [Compound 585, 4-Amino-N-(3-chloro-benzo[b]thiophen-2-yl)-N-(3,3,3-trifluoro-propyl)-benzenesulfonamide]",–
2,101,"O=C(O)c1ccc(S(=O)(=O)N(CCOC2CCCCC2)c2sc3ccccc3c2Br)cc1 [Compound 453, N-(3-Bromo-benzo[b]thiophen-2-yl)-N-(2-(cyclohexyloxy)ethyl)-4-carboxy-benzenesulfonamide]",–
36,94,"COCCN(c1sc2ccccc2c1Br)S(=O)(=O)c1ccc(C(=O)O)cc1 [Compound 274, N-(3-Bromo-benzo[b]thiophen-2-yl)-N-(2-methoxyethyl)-4-carboxy-benzenesulfonamide]",–
6.7,105,"CCCCN(c1sc2ccccc2c1C)S(=O)(=O)c1ccc(-c2nnn[nH]2)cc1 [Compound 539, N-(3-Methyl-benzo[b]thiophen-2-yl)-N-(butyl)-4-(1H-tetrazol-5-yl)-benzenesulfonamide]",–
23.2,90,"CCN(CC)c1ccc(S(=O)(=O)N(CCC2CC2)c2sc3ccccc3c2C)cc1 [Compound 739, N-(3-Methyl-benzo[b]thiophen-2-yl)-N-(cyclopropyl-ethyl)-4-diethylamino-benzenesulfonamide]",–
10.3,104,"CC(C)c1c(N(CCC2CC2)S(=O)(=O)c2ccc(C(=O)O)cc2)sc2ccccc12 [Compound 567, N-(2-Cyclopropyl-ethyl)-N-(3-isopropyl-benzo[b]thiophen-2-yl)-4-carboxy-benzenesulfonamide]",–
1,101,"Cc1c(N(Cc2cccc(C(F)(F)F)c2)S(=O)(=O)c2ccc(C(=O)O)cc2)sc2ccccc12 [Compound 491, N-(3-Methyl-benzo[b]thiophen-2-yl)-N-(3-trifluoromethyl-benzyl)-4-carboxy-benzenesulfonamide]",–
37,–,"Cc1c(N(Cc2cccc3cccnc23)S(=O)(=O)c2ccc3ncccc3c2)sc2ccccc12 [Compound 32, N-(3-Methyl-benzo[b]thiophen-2-yl)-N-(quinolin-8-ylmethyl)-quinoline-6-sulfonamide]",inhibition at 0.5 µM [4]: 100%
